Source: US7368475B2, “Furanose-type bicyclic carbohydrates with biological activity” (Kemin Pharma BVBA, priority 2003, dated 2008)
≈ marks a conversion by molar mass, not a printed value.

Experiments:
[1] = system: HIV-1 (IIIB); experiment: microbe, parasite or virus in culture; assay type: cell-based; settings: Human immunodeficiency virus 1, IIIB, CCRF-CEM; HIV-induced cytopathicity in human CEM cell cultures
[2] = system: HIV-2 (ROD); experiment: HIV-2 (ROD)-induced cytopathicity in human CEM cell cultures; assay type: cell-based; settings: Human immunodeficiency virus 2, CCRF-CEM
[3] = system: HSV-1 (KOS); experiment: HSV-1 (KOS)-induced cytopathicity in human embryo fibroblast E6SM; assay type: cell-based, Herpes Simplex Virus; settings: Human alphaherpesvirus 1
[4] = system: HSV-2 (G); experiment: HSV-2 (G)-induced cytopathicity in human embryo fibroblast E6SM; assay type: cell-based, Herpes Simplex Virus; settings: Human alphaherpesvirus 2
[5] = system: VV; experiment: VV-induced cytopathicity in human embryo fibroblast E6SM; assay type: cell-based, Vaccinia Virus; settings: for EC50: Orthopoxvirus vaccinia, E6SM, read-out: EC50 VV (E6SM)
[6] = system: VZV OKA; experiment: microbe, parasite or virus in culture; assay type: cell-based, Varicella Zoster Virus; settings: Human alphaherpesvirus 3, HEL, read-out: EC50 VZV (HEL) OKA
[7] = system: VZV 07/1; experiment: microbe, parasite or virus in culture; assay type: cell-based, Varicella Zoster Virus; settings: Human alphaherpesvirus 3, HEL, read-out: EC50 VZV (HEL) 07/1
[8] = system: CMV AD-169 Strain; experiment: CMV plaque formation in HEL cells, AD-169 strain; assay type: cell-based, human Cytomegalovirus; settings: for IC50: Human betaherpesvirus 5, AD169, virus plaque formation, HEL cells, virus input 100 PFU; for activity against CMV (in words): strain not specified
[9] = system: CMV David Strain; experiment: CMV plaque formation in HEL cells, David strain; assay type: cell-based, human Cytomegalovirus; settings: Human betaherpesvirus 5, virus plaque formation, virus input 100 PFU
[10] = system: murine leukemia cells (L1210/0); experiment: Inhibition of proliferation of murine leukemia cells L1210/0; assay type: cell-based; settings: for IC50: Mus musculus, L1210/0, read-out: IC50 L1210/0; for effect on cell proliferation (in words): at concentrations up to 200 ppm, L1210/0, FM3A
Protocol: (§1) The compounds were tested for antitumor activity via the inhibitory effects on the proliferation of murine leukemia cells (L1210/0), murine mammary carcinoma cells (FM3A) and human T-lymphocyte cells (Molt4/C8), (CEM/0). […] Compound A1 and Compound A4 show no effect at concentrations up to 200 ppm.

[11] = system: murine mammary carcinoma cells (FM3A); experiment: Inhibition of proliferation of murine mammary carcinoma cells FM3A; assay type: cell-based; settings: Mus musculus, cytostatic activity, 50% inhibitory concentration, read-out: IC50 FM3A/0
Protocol: as §1

[12] = system: human T-lymphocyte cells (Molt4/C8); experiment: Inhibition of proliferation of human T-lymphocyte cells Molt4/C8; assay type: cell-based; settings: cytostatic activity, 50% inhibitory concentration
Protocol: as §1

[13] = system: human T-lymphocyte cells (CEM/0); experiment: Inhibition of proliferation of human T-lymphocyte cells CEM/0; assay type: cell-based; settings: CCRF-CEM, cytostatic activity, 50% inhibitory concentration
Protocol: as §1

[14] = system: E. faecalis ATCC 29212 LMG 8222; experiment: microbe, parasite or virus in culture; assay type: cell-based; settings: Enterococcus faecalis, negative control = 100, read-out: % of growth at 25 PPM compared to negative control, E. faecalis ATCC 29212 LMG 8222
[15] = system: S. aureus ATCC 29213 LMG 10147; experiment: microbe, parasite or virus in culture; assay type: cell-based; settings: Staphylococcus aureus, negative control = 100, read-out: % of growth at 25 PPM compared to negative control, S. aureus ATCC 29213 LMG 10147
[16] = system: P. aeruginosa ATCC 27853 LMG 16217; experiment: microbe, parasite or virus in culture; assay type: cell-based; settings: Pseudomonas aeruginosa, negative control = 100, read-out: % of growth at 25 PPM compared to negative control, P. aeruginosa ATCC 27853 LMG 16217
[17] = system: E. coli ATCC 25922; experiment: microbe, parasite or virus in culture; assay type: cell-based; settings: Escherichia coli, ATCC25922, negative control = 100, read-out: % of growth at 25 PPM compared to negative control, E. coli ATCC 25922
[18] = system: Candida albicans ATCC 24433 IHEM 10284; experiment: microbe, parasite or virus in culture; assay type: cell-based; settings: ATCC24433, negative control = 100, read-out: % of growth at a dose of 25 PPM compared to the negative control, Candida albicans ATCC 24433 IHEM 10284
[19] = system: T. mentagrophytes ATCC 9233 IHEM 10342; experiment: microbe, parasite or virus in culture; assay type: cell-based; settings: Trichophyton mentagrophytes, ATCC9233, negative control = 100, read-out: % of growth at a dose of 25 PPM compared to the negative control, T. mentagrophytes ATCC 9233 IHEM 10342
[20] = system: A. fumigatus IHEM 2895; experiment: microbe, parasite or virus in culture; assay type: cell-based; settings: Aspergillus fumigatus, IHEM2895, negative control = 100, read-out: % of growth at a dose of 25 PPM compared to the negative control, A. fumigatus IHEM 2895
[21] = system: C. neoformans ATCC 90112 IHEM 9558; experiment: microbe, parasite or virus in culture; assay type: cell-based; settings: Cryptococcus neoformans, ATCC90112, negative control = 100, read-out: % of growth at a dose of 25 PPM compared to the negative control, C. neoformans ATCC 90112 IHEM 9558
[22] = system: C. perfringens ATCC 13124; assay type: cell-based, Clostridium perfringens; settings: negative control = 100

OC[C@H]1O[C@@H](c2ccccc2)[C@H](O)[C@@H]1O [Compound A1, β-D-1-Deoxy-1-phenyl-ribofuranose]
EC50 [1]: > 100 µg/mL | EC50 [2]: > 100 µg/mL | EC50 [3]: > 400 µg/mL | EC50 [4]: > 400 µg/mL | EC50 [5]: > 400 µg/mL | EC50 [6]: > 50 µg/mL | EC50 [7]: > 50 µg/mL | IC50 [8]: > 50 µg/mL | IC50 [9]: > 50 µg/mL | IC50 [10]: > 200 µg/mL | effect on cell proliferation (in words) ([10]; Molt4/C8, CEM/0): no effect | IC50 [11]: > 200 µg/mL | IC50 [12]: > 200 µg/mL | IC50 [13]: > 200 µg/mL | activity at 25 ppm [14]: 96% | activity at 25 ppm [15]: 96.7% | activity at 25 ppm [16]: 92.7% | activity at 25 ppm [17]: 93.4% | activity at 25 ppm [18]: 89.2% | activity at 25 ppm [19]: 62.4% | activity at 25 ppm [20]: 106% | activity at 25 ppm [21]: 93.3% | melting point: 118 °C

CO[C@@H]1[C@@H]2O[Si](C(C)C)(C(C)C)O[Si](C(C)C)(C(C)C)OC[C@H]2O[C@H]1c1ccccc1 [Compound A3, β-D-1-Deoxy-1-phenyl-2-O-methyl-3,5-O-(1,1,3,3-tetraisopropyldisiloxanylidene)-ribofuranose]
EC50 [1]: > 4 µg/mL | EC50 [2]: > 4 µg/mL | EC50 [3]: > 16 µg/mL | EC50 [4]: > 16 µg/mL | EC50 [5]: > 16 µg/mL | EC50 [6]: > 2 µg/mL | EC50 [7]: > 2 µg/mL | IC50 [8]: 1.3 µg/mL (≈ 2.79 µM) | activity against CMV (in words) [8]: significant activity | IC50 [9]: 1.3 µg/mL (≈ 2.79 µM) | IC50 [10]: 18 ± 0.5 µg/mL (≈ 38.6 µM) | cytostatic activity (in words) ([10]; text summary over L1210/0, FM3A, Molt4/C8, CEM/0): small cytostatic activity | IC50 [11]: 15 µg/mL (≈ 32.1 µM) | IC50 [12]: 19 ± 2 µg/mL (≈ 40.7 µM) | IC50 [13]: 20 ± 4 µg/mL (≈ 42.8 µM) | activity at 25 ppm [14]: 94.2% | activity at 25 ppm [15]: 92.5% | activity at 25 ppm [16]: 87.6% | activity at 25 ppm [17]: 91.3% | activity at 25 ppm [18]: 62.2% | activity at 25 ppm [19]: 64.4% | activity at 25 ppm [20]: 37.5% | activity at 25 ppm [21]: 81.1%

CO[C@@H]1[C@H](O)[C@@H](CO)O[C@H]1c1ccccc1 [Compound A4, β-D-1-Deoxy-1-phenyl-2-O-methyl-ribofuranose]
EC50 [1]: > 100 µg/mL | EC50 [2]: > 100 µg/mL | EC50 [3]: > 400 µg/mL | EC50 [4]: > 400 µg/mL | EC50 [5]: > 400 µg/mL | EC50 [6]: > 50 µg/mL | EC50 [7]: > 50 µg/mL | IC50 [8]: > 50 µg/mL | IC50 [9]: > 50 µg/mL | IC50 [10]: > 200 µg/mL | effect on cell proliferation (in words) ([10]; Molt4/C8, CEM/0): no effect | IC50 [11]: > 200 µg/mL | IC50 [12]: > 200 µg/mL | IC50 [13]: > 200 µg/mL | activity at 25 ppm [14]: 95.4% | activity at 25 ppm [15]: 96.9% | activity at 25 ppm [16]: 93.5% | activity at 25 ppm [17]: 92.8% | activity at 25 ppm [18]: 110% | activity at 25 ppm [19]: 79.7% | activity at 25 ppm [20]: 70.9% | activity at 25 ppm [21]: 99.9%

CO[C@@H]1[C@@H]2O[C@H](c3ccccc3)OC[C@H]2O[C@H]1c1ccccc1 [Compound A5, β-D-1-Deoxy-1-phenyl-2-O-methyl-3,5-O-benzylidene-ribose]
activity against CMV (in words) [8]: slight | activity at 25 ppm [14]: 92% | activity at 25 ppm [15]: 92% | activity at 25 ppm [16]: 91% | activity at 25 ppm [17]: 124% | % of growth at 25 PPM compared to negative control, C. perfringens ATCC 13124 [22]: 95.0% | activity at 25 ppm [18]: 120% | activity at 25 ppm [19]: 66% | activity at 25 ppm [20]: 57% | activity at 25 ppm [21]: 76%

CC(C)[Si]1(C(C)C)OC[C@H]2OC(c3ccccc3)C[C@@H]2O[Si](C(C)C)(C(C)C)O1 (stereo partly drawn) [Compound A6 A + B, α-β-D-1,2-dideoxy-1-phenyl-3,5-O-(1,1,3,3-tetraisopropyldisiloxanylidene)-ribofuranose]
activity at 25 ppm [14]: 95% | activity at 25 ppm [15]: 95% | activity at 25 ppm [16]: 92% | activity at 25 ppm [17]: 94% | % of growth at 25 PPM compared to negative control, C. perfringens ATCC 13124 [22]: 98.0% | activity at 25 ppm [18]: 85% | activity at 25 ppm [19]: 56% | activity at 25 ppm [20]: 54% | activity at 25 ppm [21]: 102%

CC(=O)OC[C@H]1O[C@@H](c2ccccc2)C[C@@H]1OC(C)=O [Compound A7, β-D-1,2-dideoxy-1-phenyl-ribofuranose-3,5-diacetate]
EC50 [3]: > 400 µg/mL | EC50 [4]: > 400 µg/mL | EC50 [5]: > 400 µg/mL | IC50 [8]: > 100 µg/mL | IC50 [9]: > 100 µg/mL | activity at 25 ppm [14]: 98.1% | activity at 25 ppm [15]: 91.2% | activity at 25 ppm [16]: 92.7% | activity at 25 ppm [17]: 94.8% | % of growth at 25 PPM compared to negative control, C. perfringens ATCC 13124 [22]: 95.4% | activity at 25 ppm [18]: 83.4% | activity at 25 ppm [19]: 83% | activity at 25 ppm [20]: 95% | activity at 25 ppm [21]: 67.8%

OC[C@H]1O[C@@H](c2ccccc2)C[C@@H]1O [Compound A8, β-D-1,2-dideoxy-1-phenyl-ribofuranose]
EC50 [3]: > 400 µg/mL | EC50 [4]: > 400 µg/mL | EC50 [5]: > 400 µg/mL | IC50 [8]: > 100 µg/mL | IC50 [9]: > 100 µg/mL | activity at 25 ppm [14]: 95.5% | activity at 25 ppm [15]: 92.3% | activity at 25 ppm [16]: 92.7% | activity at 25 ppm [17]: 99.2% | % of growth at 25 PPM compared to negative control, C. perfringens ATCC 13124 [22]: 96.2% | activity at 25 ppm [18]: 92.4% | activity at 25 ppm [19]: 95% | activity at 25 ppm [20]: 107% | activity at 25 ppm [21]: 84.8% | melting point: 89 to 91 °C

CC1(C)O[C@H]2O[C@H](COCc3ccccc3)[C@H](OCc3ccccc3)[C@H]2O1 [Compound A9, α-D-1,2-O-isopropylidene-3,5-O-dibenzyl-xylofuranose]
EC50 [3]: > 80 µg/mL | EC50 [4]: > 80 µg/mL | EC50 [5]: 48 µg/mL (≈ 130 µM) | activity against VV (in words) ([5]; Table 2): slight activity | EC50 [6]: > 80 µg/mL | EC50 [7]: > 80 µg/mL | IC50 [8]: 10.5 µg/mL (≈ 28.3 µM) | activity against CMV (in words) [8]: significant activity | IC50 [9]: 7.6 µg/mL (≈ 20.5 µM) | activity at 25 ppm [14]: 102% | activity at 25 ppm [15]: 93.7% | activity at 25 ppm [16]: 93% | activity at 25 ppm [17]: 95.6% | % of growth at 25 PPM compared to negative control, C. perfringens ATCC 13124 [22]: 95.1% | activity at 25 ppm [18]: 85.9% | activity at 25 ppm [19]: 92% | activity at 25 ppm [20]: 74% | activity at 25 ppm [21]: 55.1%
